pEC50: −log10 of the molar value. Read-outs that look alike come from different tables or passages of the source.
How the values were obtained:
ST88 cells [1] = conditions: ST88 cells (NF1+/−); cited from earlier work
NF90 cells = NF90 cells (NF1+/−); cited from earlier work
[2] = tested on: phospho-MEK in ST88 cells; assay: phospho-MEK ELISA in ST88 cells; type: cell-based
Excerpt: (§1) The ST88 cell line (NF1^+/−) contains elevated levels of Ras-GTP and is often used as a pre-clinical model for NF1. […] Pathway inhibition and anti-proliferative activity of RAF265 in ST88 cells.

[3] = tested on: VEGF-induced angiogenesis in Matrigel plug; assay: VEGF-CHO Matrigel plug angiogenesis model in mice (hemoglobin, Drabkin's reagent); type: in vivo; conditions: treated days 1 and 4, plugs excised day 5
Excerpt: Due to the inhibition of VEGFR-2, RAF265 also has anti-angiogenic activity which may also provide a therapeutic benefit in treating neurofibromas. To confirm that RAF265 inhibits the growth of new blood vessels (i.e., angiogenesis) in vivo, mice were implanted with Matrigel® containing Chinese hamster ovary cells (CHO) overexpressing VEGF and then treated mice with a dose range of RAF265 or a vehicle control (days 1 and 4). In this model, VEGF expressed from the CHO cells induces angiogenesis within the Matrigel® plug. Plugs are excised on day 5 and assayed for hemoglobin using Drabkin's reagent, as a measure of the degree of angiogenesis.

ST88 cells [4] = assay: Proliferation of ST88 cells; type: cell-based
Excerpt: as §1

[5] = tested on: phospho-ERK in ST88 cells; assay: phospho-ERK ELISA in ST88 cells; type: cell-based
Excerpt: as §1

Row | SMILES | effect on proliferation (in words) (ST88 cells [1]) | levels of phospho-ERK (in words) (ST88 cells [1]) | effect on proliferation (in words) (NF90 cells) | levels of phospho-ERK (in words) (NF90 cells) | levels of phospho-MEK after treatment (in words) ([2]; ST88 cells) | pEC50 ([2]; ST88 cells (NF1+/−)) | dose giving maximal suppression of hemoglobin content [3] | hemoglobin content of Matrigel plug (in words) [3] | effect on proliferation (in words) (ST88 cells [4]; ST88 cells) | pEC50 (ST88 cells [4]; ST88 cells (NF1+/−)) | levels of phospho-ERK after treatment (in words) ([5]; ST88 cells) | pEC50 ([5]; ST88 cells (NF1+/−))
1 | O=C(NOCC1CC1)c1ccc(F)c(F)c1Nc1ccc(I)cc1Cl [CI-1040] | inhibited proliferation | decreased levels of phospho-ERK | inhibited proliferation | decreased levels of phospho-ERK |  |  |  |  |  |  |  | 
2 | Cn1c(Nc2ccc(C(F)(F)F)cc2)nc2cc(Oc3ccnc(-c4ncc(C(F)(F)F)[nH]4)c3)ccc21 [Example 1] |  |  |  |  | decreased levels | 6.82 | 50 mg/kg | dose-dependent decrease | inhibition of proliferation | 6.68 | decreased levels | 6.73
